Source: article PMC7326642 (Current computer-aided drug design, 2021)
pIC50: −log10 of the molar value.

Key:
[1] = target: Cyclin A2-CDK2 kinase enzyme (Homo sapiens, UniProt P20248+P24941); assay: ADP-Glo Kinase Assay, screening at 0, 1 and 10 μM; format: biochemical; settings: for kinase activity reduced to: remaining CDK2 kinase activity
[2] = target: cyclin A2-CDK2 complex (Homo sapiens, UniProt P20248+P24941); assay: dose response in the in vitro biochemical kinase assay; settings: 0 nM to 100 μM, room temperature

SMILES	effect on kinase activity (in words) ([1]; 10 μM compound)	other results
NC(=O)c1c(Nc2ccc(Br)cc2)[nH]c(=O)[nH]c1=O [NSC73381]	weakly activated CDK2 activity	–
N#Cc1c(Nc2ccc(Br)cc2)[nH]c(=O)[nH]c1=O [NSC73380]	weakly activated CDK2 activity	–
Cc1cc(Br)ccc1Nc1nc(N)nc(N)c1N=O [NSC66578]	weakly activated CDK2 activity	–
NC(=S)c1cn(C2OC(CO)C(O)C2O)c2ncnc(N)c12 (centres unmarked) [compound 2]	did not further reduce the kinase activity	kinase activity reduced to ([1]; 1 μM compound): 43%; pIC50 [2]: 8.12
Cc1ccc(Nc2nc(N)nc(N)c2N=O)cc1 [NSC49876]	weakly activated CDK2 activity	–
N#Cc1c(N)nc(N)nc1Nc1ccc(Br)cc1 [compound 1]	–	effect on kinase activity (in words) ([1]; 1 μM compound): no significant effect; kinase activity reduced to ([1]; 10 μM compound): 58%; pIC50 [2]: 5.19
CCc1c(N)nc(N)nc1Nc1ccc(Cl)c(Cl)c1 [NSC50590]	weakly activated CDK2 activity	–
